Results on 2 substances are retold here after paper PMC7290078, “Agonist bias and agonist‐dependent antagonism at corticotrophin releasing factor receptors” (Pharmacology Research & Perspectives, 2020).

No end group written: not given here.

Experiment [1] concerns the target T1, CRF1 receptor (hCRF1α) (Homo sapiens, UniProt P34998).
T1 construct: host or cells: Cos7 cells, transient transfection (PEI), pcDNA3.0/3.1 vector
T1 sequence (P34998 24-415): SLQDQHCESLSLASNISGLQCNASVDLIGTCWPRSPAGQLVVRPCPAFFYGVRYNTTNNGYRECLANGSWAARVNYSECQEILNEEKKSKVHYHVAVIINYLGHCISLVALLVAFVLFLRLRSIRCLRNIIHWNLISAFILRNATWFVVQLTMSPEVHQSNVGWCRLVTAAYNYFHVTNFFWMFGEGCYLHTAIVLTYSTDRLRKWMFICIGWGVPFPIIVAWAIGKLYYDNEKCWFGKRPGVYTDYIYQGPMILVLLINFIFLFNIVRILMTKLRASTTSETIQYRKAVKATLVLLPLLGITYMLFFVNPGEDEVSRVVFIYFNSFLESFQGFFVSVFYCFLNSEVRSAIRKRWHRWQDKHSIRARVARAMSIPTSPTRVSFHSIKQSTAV
Briefly: cAMP accumulation (LANCE) in Cos7 cells transfected with hCRF1α, agonist stimulation. It is filed as cell-based. An excerpt: (§1) Plasmids containing hCRF1α and hCRF2α (GenBank accession numbers AY457172 and AY449734) were obtained from the cDNA Resource Centre (Bloomsburg University) and are referred to as CRF1 and CRF2 in this manuscript. Hemagglutinin (HA) epitope‐tagged human Calcitonin (CT) receptor (CT(a) splice variant) and myc‐tagged human RAMP1 were used as described previously. ^27 HA‐tagged human calcitonin receptor‐like receptor (CLR), N‐terminal FLAG‐tagged human RAMP3 and N‐terminal myc‐tagged human RAMP3 were a gift from Professor David Poyner (Aston University) and Professor Patrick Sexton (Monash University), respectively. N‐terminal FLAG‐tagged human RAMP2 was used as described previously. ^28 All receptors and RAMPs were cloned in pcDNA3.0 or pcDNA3.1 plasmid vectors. All plasmid inserts were sequenced at the Centre for Genomics, Proteomics and Metabolomics (University of Auckland) and the sequences were verified prior to use.
Cos7, HEK‐293S, and HEK‐293T cells were cultured as described previously. ^28 , ^29 Cos7 cells were originally supplied by the ATCC to Associate Professor Nigel Birch (University of Auckland). HEK‐293S cells were a gift from Professor David Poyner (Aston University) and HEK‐293T cells a gift from Professor John Taylor (University of Auckland). Briefly, all cell lines were cultured in Dulbecco's Modified Eagle Medium (DMEM) supplemented with 8% heat inactivated fetal bovine serum (FBS) and maintained in a humidified incubator at 37°C with 5% CO2. For transfection, cells were counted (Countess CounterTM; Life Technologies) and plated at a density of 20 000 cells per well in 96‐well plates. The cells were transiently transfected 48 hours prior to assaying using polyethylenimine (PEI), as described previously. ^28 , ^29 In all experiments a total of 0.25 μg DNA was transfected per well. In the majority of experiments 0.25 μg DNA of receptor‐containing plasmid or the pcDNA3.1 plasmid without an insert was used. For experiments involving RAMPs, 0.125 μg of receptor DNA and 0.125 μg of RAMP‐containing plasmid DNA were transfected to give a 1:1 ratio of receptor to RAMP. […]
cAMP accumulation in Cos7 cells transfected with hCRF1α or hCRF2α receptors was measured using the LANCE cAMP detection assay kit (PerkinElmer Life and Analytical Sciences) as described previously. ^30 Briefly, culture media was removed and replaced with DMEM containing 0.1% bovine albumin serum (BSA) and 1 mmol/L 3‐isobutyl‐1‐methylxanthine (IBMX) for 30 minutes at 37°C. […] Samples were shaken for 15 minutes before 5 µL cell lysate was transferred to a white 384‐well optiplate and processed for cAMP quantification as described previously. ^31 Samples were read using an Envision plate reader (PerkinElmer). cAMP concentrations were determined from a standard curve generated in duplicate. […]
For orientation: cAMP levels reflect the balance of adenylyl cyclase and phosphodiesterase activity.

Experiment [2] has as its target T1, CRF1 receptor (hCRF1α). The experiment is described as follows: ERK1/2 phosphorylation (AlphaLISA Surefire Ultra) in Cos7 cells transfected with hCRF1α. It is filed as cell-based.
Description: as §1, with “All plasmid inserts were sequenced at the Centre for Genomics, Proteomics and Metabolomics (University of Auckland) and the sequences were verified prior to use.” left out
Cos7, HEK‐293S, and HEK‐293T cells were cultured as described previously. ^28 , ^29 Cos7 cells were originally supplied by the ATCC to Associate Professor Nigel Birch (University of Auckland). […] For transfection, cells were counted (Countess CounterTM; Life Technologies) and plated at a density of 20 000 cells per well in 96‐well plates. […]
The AlphaLISA Surefire Ultra extracellular signal‐regulated kinase 1/2 (ERK1/2) phosphorylation (pERK1/2) assay kit (PerkinElmer Life and Analytical Sciences) was used to measure pERK1/2 in cell lysates after agonist stimulation. […] Samples were read using an Envision plate reader (PerkinElmer). […]
Background: Bead proximity is the source of the signal in Alpha formats.

For the substance “DNPSLSIDLTFHLLRTLLELARTQSQRERAEQNRIIFDSV-NH2 [UCN1]”, the EC50 is 0.107 nM at CRF1 receptor (hCRF1α) [1] (cAMP, hCRF1α, Cos7, 15 min at 37°C, 1 mmol/L IBMX, 1 pmol/L to 1 µmol/L agonist, mean ± SEM, n = 5) and 22.9 nM on CRF1 receptor (hCRF1α) [2] (pERK1/2, hCRF1α, Cos7, 7 min at 37°C, 1 pmol/L to 1 µmol/L agonist, mean ± SEM, n = 5).

As for “IVLSLDVPIGLLQILLEQARARAAREQATTNARILARVGHC-NH2 (C-terminus assumed) [UCN2]”, the “concentration‐dependent increase in cAMP” value on CRF1 receptor (hCRF1α) [1] (CRF1 receptor) is “not UCN2 and UCN3 exhibited a concentration‐dependent increase”. On CRF1 receptor (hCRF1α) [2] (CRF1 receptor), the “concentration‐dependent increase in pERK1/2” value is “not UCN2 and UCN3 exhibited a concentration‐dependent increase”.

One may read the EC50 as the concentration that produces a half-maximal response.
